Converted amounts (≈) assume the structure as drawn. Where two headings read alike, the source gives them in different places.
Experiments:
[1] = tested on: T. b. brucei 427; test: T. b. brucei growth inhibition (University of Antwerp); format: cell-based, Trypanosoma brucei brucei; details: for IC50: T. b. brucei 427, mean of 2 to 5 determinations, read-out: IC50 T. b. bruc
[2] = tested on: T. b. rhodesiense; test: T. b. rhodesiense growth inhibition (University of Antwerp); format: cell-based, Trypanosoma brucei rhodesiense; details: mean of 2 to 5 determinations, read-out: IC50 T. b. rhod
[3] = tested on: Trypanosoma cruzi; test: T. cruzi growth inhibition (University of Antwerp); format: cell-based; details: mean of 2 to 5 determinations
[4] = tested on: Leishmania infantum; test: L. infantum growth inhibition (University of Antwerp); format: cell-based; details: mean of 2 to 5 determinations
[5] = tested on: human lung fibroblasts (MRC-5 cells); test: Cytotoxicity toward MRC-5 cells (University of Antwerp); format: cell-based
[6] = tested on: T. b. brucei 427; test: T. b. brucei 427 growth inhibition (Scynexis); format: cell-based, Trypanosoma brucei brucei; details: for Selectivity Index: L929 vs T. b. brucei; for IC50: Trypanosoma brucei, growth inhibition of T. b. brucei 427, mean ± SD
[7] = tested on: L929 mouse fibroblasts; test: Cytotoxicity toward L929 mouse fibroblasts (Scynexis); format: cell-based
[8] = Mouse liver S9 stability; format: in vitro ADME; details: CD-1, mouse, mouse liver S9 subcellular fraction, half-life in mouse liver S9 fraction; read-out: Mouse S9 t1/2
[9] = Kinetic aqueous solubility in pH 7.4 PBS; format: physicochemical
Description: Table 1 Inhibitory potency, metabolic stability, aqueous solubility, and MDCK-MDR1 cell permeability for 15 screening hits against T. b. brucei. | column: Solubility ^c / (µg/mL)

[10] = in vitro; details: dog, MDCK-MDR1, Permeability Papp
[11] = tested on: T. b. brucei (EATRO 110); test: Acute (stage 1) HAT infection mouse model; format: in vivo, T. b. brucei; female Swiss Webster mice; details: 2 mg/kg i.p. once daily for 4 days
Method: Therefore, 24 was examined in a stage 1 HAT mouse model.[14] Briefly, dosing was orally once daily for four days, starting 24 h postinfection, and parasitemia was assessed weekly via tail vein blood smears (see the Supporting Information). Excellent activity was observed (Table 4), with 24 providing complete cures (i.e. parasite free blood smears after >30 days) to all mice at doses as low as 5 mg/kg, similar to the control drug pentamidine (given i.p. at 2 mg/kg), whereas the vehicle only mice died on day 7. […] Here, oral dosing of 24 (at 12.5 to 50 mg/kg once daily for seven days from day 21 postinfection) led to significant increases in survival times in comparison to untreated controls (66–70 days vs 31 days; Table 5), although cure rates were inadequate (0–20%). […]
Mouse Model f or Acu te HAT Inf ection. Compound 24 was tested for in vivo effi cac y against acute HAT infection caused b y T. b. brucei (EATRO 110 strain) at the Haskins Laboratories, Pace Universit y. […] Infected animals or th ose showing si gns of infectionwer e euthanized.Untreated infected contr ol animals died after 5-7 days; mice remaining parasite free for more than 30 da ys beyond the end of the tr eatment period w er e con sidered cur ed. […]

[12] = tested on: T. b. brucei (TREU 667); test: CNS (stage 2, chronic) HAT infection mouse model; format: in vivo, T. b. brucei; female Swiss Webster mice
Method: Therefore, 24 was examined in a stage 1 HAT mouse model.[14] Briefly, dosing was orally once daily for four days, starting 24 h postinfection, and parasitemia was assessed weekly via tail vein blood smears (see the Supporting Information). Excellent activity was observed (Table 4), with 24 providing complete cures (i.e. parasite free blood smears after >30 days) to all mice at doses as low as 5 mg/kg, similar to the control drug pentamidine (given i.p. at 2 mg/kg), whereas the vehicle only mice died on day 7. […]
Mouse Model for Chronic HAT Inf ection. Compound 24 was tested for in vi vo efficac y against chronic HAT infection caused b y T. b. brucei (TREU 667 strain) at the Haskin s Laboratories, Pace Universit y. […]
suspension formulation (0.8% CMC, 0.1% SDS in water) to groups of 8 or 10infected f emal e Swiss Webster mice, starting 21 d postinfection, according to a report ed method. 5 Animals remaining parasite free for more than 180 da ys beyond the end of the treatment period were […]

[13] = cytotoxicity toward human lung fibroblasts
[14] = Trypanosoma brucei, RHODESIENSE
[15] = Homo sapiens, MRC5, cytotoxicity toward human lung fibroblasts
[16] = 10 mg/kg single i.p. dose on day 4
[17] = 10 mg/kg single i.p. dose on day 21

## O=[N+]([O-])c1cn2c(n1)[S+]([O-])CC(Oc1ccc(C(F)(F)F)cn1)C2 (stereo not drawn) [Compound 37]
[1]
  IC50: 17 µM
[2]
  IC50: 9.9 µM
[3]
  IC50: 12 µM
[4]
  IC50: 41 µM
[5]; [13]
  IC50: 30 µM

## O=[N+]([O-])c1cn2c(n1)SC(COCc1ccc(OCc3ccccc3)cc1)C2 (stereo not drawn) [Compound 15]
[6]
  Selectivity Index: >22
  IC50: 0.46 ± 0.21 µg/mL (≈ 1.16 µM)
[7]
  IC50: > 10 µg/mL
[8]
  half-life: < 1.17 h
[9]
  solubility: 1.2 µg/mL (≈ 3.02 µM)
[10]
  Papp at 1 h, 3 µM: 58.3 ×10⁻⁶ cm/s

## O=[N+]([O-])c1cn2c(n1)SCC(OCc1ccc(-c3ccc(OC(F)(F)F)cc3)cn1)C2 (stereo not drawn) [Compound 32]
[1]; Trypanosoma brucei
  IC50: 4.3 µM
[2]; [14]
  IC50: 2.1 µM
[3]; Trypanosoma cruzi
  IC50: 1.4 µM
[4]; Leishmania infantum
  IC50: 7.5 µM
[5]; [15]
  IC50: 21 µM

## O=[N+]([O-])c1cn2c(n1)SCC(Oc1ccc(C(F)(F)F)cn1)C2 (stereo not drawn) [Compound 29]
[1]; Trypanosoma brucei
  IC50: > 64 µM
[2]; [14]
  IC50: > 64 µM
[3]; Trypanosoma cruzi
  IC50: 5.3 µM
[4]; Leishmania infantum
  IC50: 10 µM
[5]; [15]
  IC50: > 64 µM

## O=[N+]([O-])c1cn2c(n1)[S+]([O-])CC(Oc1ccc(OC(F)(F)F)cc1)C2 (stereo not drawn) [Compound 36]
[1]
  IC50: 55 µM
[2]
  IC50: 27 µM
[3]
  IC50: 7.7 µM
[4]
  IC50: > 64 µM
[5]; [13]
  IC50: > 64 µM

## O=[N+]([O-])c1cn2c(n1)SCC(OCc1ccc(OC(F)(F)F)cc1)C2 (stereo not drawn) [Compound 30]
[1]; Trypanosoma brucei
  IC50: 44 µM
[2]; [14]
  IC50: 36 µM
[3]; Trypanosoma cruzi
  IC50: 1.1 µM
[4]; Leishmania infantum
  IC50: 55 µM
[5]; [15]
  IC50: > 64 µM

## CSc1ccc(OCc2ncc([N+](=O)[O-])n2C)cc1 [Compound 4, fexinidazole, reference compound]
[10]
  Papp at 1 h, 3 µM: 73.2 ×10⁻⁶ cm/s

## O=[N+]([O-])c1cn2c(n1)OC[C@@H](Oc1cc(-c3ccc(C(F)(F)F)nc3)ccn1)C2 [Compound 22]
[6]
  Selectivity Index: >3.6
  IC50: 2.8 ± 0.2 µg/mL (≈ 6.87 µM)
[7]
  IC50: > 10 µg/mL
[8]
  half-life: 2.43 h
[9]
  solubility: 10 µg/mL (≈ 24.6 µM)
[10]
  Papp at 1 h, 3 µM: 79.3 ×10⁻⁶ cm/s

## CN1CC(OCc2ccc(OCc3ccccc3)cc2)Cn2nc([N+](=O)[O-])cc21 (stereo not drawn) [Compound 23]
[6]
  Selectivity Index: >3.3
  IC50: 3 ± 0.9 µg/mL (≈ 7.61 µM)
[7]
  IC50: > 10 µg/mL
[8]
  half-life: < 1.17 h
[9]
  solubility: 2.4 µg/mL (≈ 6.08 µM)
[10]
  Papp at 1 h, 3 µM: 36.3 ×10⁻⁶ cm/s

## O=[N+]([O-])c1cn2c(n1)S(=O)(=O)CC(Oc1ccc(C(F)(F)F)cn1)C2 (stereo not drawn) [Compound 41]
[1]; Trypanosoma brucei
  IC50: 19 µM
[2]; [14]
  IC50: 11 µM
[3]; Trypanosoma cruzi
  IC50: 2.6 µM
[4]; Leishmania infantum
  IC50: 30 µM
[5]; [15]
  IC50: 46 µM

## O=[N+]([O-])c1cn2c(n1)[S+]([O-])CC(OCc1ccc(OC(F)(F)F)cc1)C2 (stereo not drawn) [Compound 38]
[1]
  IC50: 5.6 µM
[2]
  IC50: 5.1 µM
[3]
  IC50: 9.1 µM
[4]
  IC50: > 64 µM
[5]; [13]
  IC50: > 64 µM

## N=C(N)c1ccc(OCCCCCOc2ccc(C(=N)N)cc2)cc1 [Pentamidine, pentamidine, reference compound]
[11]
  Cured: 100%
  Cured/Total: 3/3
  Mean survival: >30 days

## O=[N+]([O-])c1cn2c(n1)S(=O)(=O)CC(Oc1ccc(OC(F)(F)F)cc1)C2 (stereo not drawn) [Compound 40]
[1]; Trypanosoma brucei
  IC50: 15 µM
[2]; [14]
  IC50: 13 µM
[3]; Trypanosoma cruzi
  IC50: 3.5 µM
[4]; Leishmania infantum
  IC50: 32 µM
[5]; [15]
  IC50: > 64 µM

## Berenil [reference compound]
[12]; [16]
  Cured: 100%
  Cured/Total: 5/5
[12]; [17]
  Cured: 0%
  Cured/Total: 0/5
  Mean relapse time: 41 days

## O=[N+]([O-])c1cn2c(n1)[S+]([O-])CC(OCc1ccc(-c3ccc(OC(F)(F)F)cc3)cn1)C2 (stereo not drawn) [Compound 39, 2-Nitro-6-({5-[4-(trifluoromethoxy)phenyl]pyridin-2-yl}methoxy)-6,7-dihydro-5H-imidazo[2,1-b][1,3]thiazine 8-oxide]
[1]
  IC50: 0.075 µM
[2]
  IC50: 0.1 µM
[3]
  IC50: 0.14 µM
[4]
  IC50: 2 µM
[5]; [13]
  IC50: 54 µM

## O=[N+]([O-])c1cn2c(n1)SCC(OCc1ccc(OCc3ccccc3)cc1)C2 (stereo not drawn) [Compound 31]
[1]; Trypanosoma brucei
  IC50: 1.4 µM
[2]; [14]
  IC50: 1.2 µM
[3]; Trypanosoma cruzi
  IC50: 0.49 µM
[4]; Leishmania infantum
  IC50: 45 µM
[5]; [15]
  IC50: > 64 µM

## CC1(COCc2ccc(OCc3ccccc3)cc2)Cn2cc([N+](=O)[O-])nc2[S+]1[O-] (stereo not drawn) [Compound 11]
[6]
  Selectivity Index: >77
  IC50: 0.13 ± 0.04 µg/mL (≈ 0.304 µM)
[7]
  IC50: > 10 µg/mL
[8]
  half-life: < 1.17 h
[9]
  solubility: 1.3 µg/mL (≈ 3.04 µM)
[10]
  Papp at 1 h, 3 µM: 65.1 ×10⁻⁶ cm/s

## O=[N+]([O-])c1cn2c(n1)[S+]([O-])CC(Oc1ccc(C(F)(F)F)cn1)C2 (stereo not drawn) [Compound 34]
[1]
  potency relative to 12 against T. b. brucei (fold less potent): 4- to 6 fold
  IC50: 1.2 µM
[2]
  IC50: 0.51 µM
[3]
  IC50: 4.1 µM
[4]
  IC50: 13 µM
[5]; [13]
  IC50: > 64 µM

## CC1(COCc2ccc(OCc3ccccc3)cc2)Cn2cc([N+](=O)[O-])nc2S1 (stereo not drawn) [Compound 20]
[6]
  Selectivity Index: >4.5
  IC50: 2.2 ± 0.7 µg/mL (≈ 5.35 µM)
[7]
  IC50: > 10 µg/mL
[9]
  solubility: 1.2 µg/mL (≈ 2.92 µM)
[10]
  Papp at 1 h, 3 µM: 46.5 ×10⁻⁶ cm/s

## COc1ccc(-c2ccc(O[C@@H]3COc4nc([N+](=O)[O-])cn4C3)nc2)cn1 [Compound 21]
[6]
  Selectivity Index: >3.7
  IC50: 2.7 ± 0.5 µg/mL (≈ 7.31 µM)
[7]
  IC50: > 10 µg/mL
[8]
  half-life: 3.98 h
[9]
  solubility: 18 µg/mL (≈ 48.7 µM)
[10]
  Papp at 1 h, 3 µM: 76.9 ×10⁻⁶ cm/s

## O=[N+]([O-])c1cn2c(n1)[S+]([O-])CC(Oc1ccc(OC(F)(F)F)cc1)C2 (stereo not drawn) [Compound 33]
[1]
  potency relative to 12 against T. b. brucei (fold less potent): 4- to 6 fold
  IC50: 1.6 µM
[2]
  IC50: 0.98 µM
[3]
  IC50: 2.1 µM
[4]
  IC50: 7 µM
[5]; [13]
  IC50: 23 µM

## O=[N+]([O-])c1cn2c(n1)SCC(Oc1ccc(OC(F)(F)F)cc1)C2 (stereo not drawn) [Compound 28]
[1]; Trypanosoma brucei
  IC50: 40 µM
[2]; [14]
  IC50: 59 µM
[3]; Trypanosoma cruzi
  IC50: 2.2 µM
[4]; Leishmania infantum
  IC50: 7 µM
[5]; [15]
  IC50: 51 µM

From publication PMC5840523, “Assessment of a pretomanid analogue library for African trypanosomiasis: Hit-to-lead studies on 6-substituted 2-nitro-6,7-dihydro-5H-imidazo[2,1-b][1,3]thiazine 8-oxides” (Bioorganic & Medicinal Chemistry Letters, 2018)
